Experimental data as given in patent publication US9994533B2, “Method of preparing ATG's analogue, and the application of ATG and it's analogue” (Longhua Hospital Shanghai University of Traditional Chinese …, priority 2016, dated 2018).

Target: T1, PP2A (Homo sapiens, UniProt P62714)
T1 construct: endogenous in cells; host or cells: 293T
Test: PP2A activity in 293T cells stimulated with ATG analogues
Assay type: cell-based
Settings: 10 μM, DMSO as reference, FIG. 11
Description: The biological activities of the three compounds were determined by measuring the downstream PP2A activity and the degree of phosphorylation of NF-kB. […] The concentrations of ATG and the three new compounds were 10 μM.

T1 sequence (P62714 whole entry): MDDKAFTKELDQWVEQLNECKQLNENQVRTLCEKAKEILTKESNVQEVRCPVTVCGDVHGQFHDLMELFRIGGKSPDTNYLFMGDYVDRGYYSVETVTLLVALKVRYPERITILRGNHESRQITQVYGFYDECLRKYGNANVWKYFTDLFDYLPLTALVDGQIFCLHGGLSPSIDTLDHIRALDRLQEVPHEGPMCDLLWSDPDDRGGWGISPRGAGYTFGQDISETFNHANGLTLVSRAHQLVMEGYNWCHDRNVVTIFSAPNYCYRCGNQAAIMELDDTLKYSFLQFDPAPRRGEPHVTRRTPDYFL

Potassium trifluoro (4-(5-(3,4,5-trimethoxyphenyl)-1,2,4-oxadiazol-3-yl) phenyl) borate [BT282]
effect on PP2A activity relative to native ATG: higher activity to PP2A than natural ATG
